Molecules are shown by their SMILES.

The first assay deals with T1, binding of recombinant macrophage-tropic strain JR-FL gp120 to immobilized recombinant CD4 (Homo sapiens, UniProt P01730).
T1 construct: human CD4 (comprised of amino acids 1-371); made in house; host or cells: Sf9 insect cells, baculovirus vector pAcGP67
Briefly: gp120/CD4 binding assay (DELFIA competition assay, europium-labeled gp120, immobilized CD4). The conditions noted are these: control substances used in optimizing the binding assay. Also on record: species or system HIV (strain JR-FL) gp120; human CD4. From the text:
Coding sequences for gp120 (macrophage-tropic strain JR-FL) and human CD4 (comprised of amino acids 1-371) were sub-cloned into the commercial baculovirus expression vector pAcGP67 (Pharmingen, San Diego, Calif.). The recombinant vectors were then transfected into Sf9 insect cell monolayers using the Baculogold™ transfection system. Clones were isolated by the method of limited dilution.
For large-scale production, cell culture was scaled up in 8-liter spinner flasks of Sf9 cells adapted to serum-free growth conditions, then infected by baculovirus using an MOI of 5 and the cell supernatant was harvested 72 hours later. The yields of recombinant protein expressed for both proteins were similar; 2-5 μg/ml (micrograms per milliliter). Recombinant CD4 protein was immunopurified using an affinity-column of immobilized Anti-CD4 D1 mAb Leu3a (Dalgleish, A. G., et al., Lancet, 2:1047-1050 1987) and gp120 protein was immunopurified using a resin coupled with Propharmacon monoclonal antibody PPC3G6 produced in-house (mouse IgG2) against Sf9-produced gp120. Protein purity and molecular weight were assessed using reduced and non-reduced SDS PAGE.
The identification of inhibitors was carried out by a competition assay utilizing recombinant macrophage-tropic strain JR-FL gp120, which competes with a prospective inhibitor to bind to immobilized recombinant CD4. The amount of gp12O binding to CD4 was quantitated by DELFIA “Dissociation Enhanced Lanthanide Fluoroimmunoassay” (Paterson, N., et al., Ann. Clin Biochem., 22, 606-611, 1985), having previously labeled the gp120 with a commercial europium chelate (Wallac Oy, Turku, Finland). The final readout uses time-resolved fluorescence to quantitate the amount of dissociated europium metal present. Binding of labeled gp120 was saturable and yielded an IC50 of 3 nM, which approximates literature values (Lasky, L. A., et al., Cell, 50, 975-985). In addition, the binding of gp120 was inhibited by Leu3a with an IC50 of 2 μg/ml. […] The assay is optionally adapted to 384-well format for screening purposes.
`CC(C)CCC[C@@H](C)[C@H]1CC[C@H]2[C@@H]3CC[C@H]4C[C@@H](CCC=C(c5cc(Cl)c(O)c(C(=O)O)c5)c5cc(Cl)c(O)c(C(=O)O)c5)CC[C@]4(C)[C@H]3CC[C@]12C` [cosalane, reference compound]: the “IC50, inhibition of binding of gp120 to immobilized CD4” value was 4.3 µg/mL.

The assay is the same for the next values; noted with them: control substances used in optimizing the binding assay; read-out: IC50, inhibition of binding of gp120 to immobilized CD4 (converted).
As for `O=C(O)C1=CC(=C(c2ccc(O)c(C(=O)O)c2)c2ccc(O)c(C(=O)O)c2)C=CC1=O` [aurintricarboxylic acid, reference compound], the IC50 was 1180 nM.

Still in this assay, the particulars now being: gp120/CD4 binding assay; read-out: Activity (IC50 level in the gp120/CD4 binding assay).
Regarding `O=C(O)[C@H](Cc1ccccc1)NS(=O)(=O)c1cnc(N2CCC(CCCCCC3CCN(S(=O)(=O)c4cc(Br)c(Cl)s4)CC3)CC2)c(Br)c1`, the IC50 was less than 1000 nM. Same read-out and setting: to `O=C(O)CN(CCc1ccc(F)cc1)S(=O)(=O)c1cnc(N2CCC(CCCC3CCN(S(=O)(=O)c4cc(Br)c(Cl)s4)CC3)CC2)c(Br)c1` belongs less than 1000 nM; to `O=C(NCCCCC(NS(=O)(=O)c1cnc(N2CCC(CCCC3CCN(S(=O)(=O)c4cc(Br)c(Cl)s4)CC3)CC2)c(Br)c1)C(=O)O)OCc1ccccc1Cl` (stereo not shown), less than 1000 nM; to `O=C(O)[C@H](Cc1ccccc1)NS(=O)(=O)c1cnc(N2CCC(CCCCCCCC3CCN(S(=O)(=O)c4cc(Br)c(Cl)s4)CC3)CC2)c(Br)c1`, less than 1000 nM.

With `O=C(O)CC1Cc2ccccc2CN1S(=O)(=O)c1cnc(N2CCC(CCCCC3CCN(S(=O)(=O)c4cc(Br)c(Cl)s4)CC3)CC2)c(Br)c1` (stereo not shown), the IC50 was less than 1000 nM. Still for that read-out and setting: to `O=C(O)C1(NS(=O)(=O)c2cnc(N3CCC(CCCC4CCN(S(=O)(=O)c5cc(Br)c(Cl)s5)CC4)CC3)c(Br)c2)CCCCC1` belongs less than 1000 nM; to `O=C(O)[C@H](Cc1ccccc1)NS(=O)(=O)c1cnc(N2CCC(CCCCC3CCN(S(=O)(=O)c4cc(Br)c(Cl)s4)CC3)CC2)c(C(F)(F)F)c1`, 1000 to 10000 nM; to `O=C(O)C[C@@H]1CCCN1S(=O)(=O)c1cnc(N2CCC(CCCC3CCN(S(=O)(=O)c4cc(Br)c(Cl)s4)CC3)CC2)c(Br)c1`, 1000 to 10000 nM.

With `O=C(O)[C@H](Cc1ccc(Cl)cc1)NS(=O)(=O)c1cnc(N2CCC(CCCCCC3CCN(S(=O)(=O)c4cc(Br)c(Cl)s4)CC3)CC2)c(Br)c1`, the IC50 lay in the range of 1000 to 10000 nM.

Consider `O=C(O)[C@H](Cc1ccccc1)NS(=O)(=O)c1ccc(N2CCC(CCCC3CCN(S(=O)(=O)c4cc(Br)c(Cl)s4)CC3)CC2)c(Cl)c1`, for which the IC50 was in the range of 1000 to 10000 nM. The same measure, in the same setting: to `CSCC[C@H](NS(=O)(=O)c1ccc(N2CCC(CCCC3CCN(S(=O)(=O)c4ccc(C(C)(C)C)cc4)CC3)CC2)c(Cl)c1)C(=O)O` belongs 1000 to 10000 nM; to `O=C(O)[C@@H]1CC[C@H](NS(=O)(=O)c2ccc(N3CCC(CCCC4CCN(S(=O)(=O)c5ccc(F)cc5)CC4)CC3)c(Cl)c2)C1`, greater than 10000 nM.

Turning to `O=C(NO)[C@H]1CC[C@H](NS(=O)(=O)c2ccc(N3CCC(CCCC4CCN(S(=O)(=O)c5cc(Br)c(Cl)s5)CC4)CC3)c(Cl)c2)C1`, the IC50 was greater than 10000 nM. Same read-out and setting: to `O=S(=O)(c1cnc(N2CCC(CCCC3CCN(S(=O)(=O)c4c(Cl)ccc5nonc45)CC3)CC2)c(Br)c1)N1CCCNCC1` belongs greater than 10000 nM.

(Values after patent US20060035932A1, “N-aryl piperidine compounds” (Propharmacon, Inc., priority 2004, published 2006).)
